In PubChem BioAssay AID1745844 (Carcinogenic Potency Database (CPDB), 2022):
Activity calls are given as the source filed them. The rule behind the calls is not given here.

Tested on: rodent lifetime carcinogenesis bioassay, tumor incidence TD50
Assay: chronic cancer bioassays in animals – CPDB, compiled studies (AID 1745844)

## S=C(SN1CCOCC1)N1CCOCC1
rat, strain Sprague-Dawley, females, in feed, site: kidney, lesion: several types, types named in the paper, dosed 112 weeks, study length 112 weeks
  TD50: 338 mg/kg/day
rat, strain Sprague-Dawley, females, in feed, site: kidney, lesion: squamous-cell carcinoma, dosed 112 weeks, study length 112 weeks
  TD50: 571 mg/kg/day
rat, strain Sprague-Dawley, females, in feed, site: kidney, lesion: urothelial carcinoma, dosed 112 weeks, study length 112 weeks
  TD50: 571 mg/kg/day
rat, strain Sprague-Dawley, females, in feed, site: kidney, lesion: urothelial papilloma, dosed 112 weeks, study length 112 weeks
  TD50: 1740 mg/kg/day
rat, strain Sprague-Dawley, females, in feed, site: urinary bladder, lesion: several types, types named in the paper, dosed 112 weeks, study length 112 weeks
  TD50: 206 mg/kg/day
rat, strain Sprague-Dawley, females, in feed, site: urinary bladder, lesion: squamous-cell carcinoma, dosed 112 weeks, study length 112 weeks
  TD50: 1740 mg/kg/day
rat, strain Sprague-Dawley, females, in feed, site: urinary bladder, lesion: squamous-cell papilloma, dosed 112 weeks, study length 112 weeks
  TD50: 862 mg/kg/day
rat, strain Sprague-Dawley, females, in feed, site: urinary bladder, lesion: urothelial carcinoma, dosed 112 weeks, study length 112 weeks
  TD50: 862 mg/kg/day
rat, strain Sprague-Dawley, females, in feed, site: urinary bladder, lesion: urothelial papilloma, dosed 112 weeks, study length 112 weeks
  TD50: 571 mg/kg/day
rat, strain Sprague-Dawley, females, in feed, site: urinary tract, lesion: several types, types named in the paper, dosed 112 weeks, study length 112 weeks
  TD50: 96.9 mg/kg/day
rat, strain Sprague-Dawley, males, in feed, site: kidney, lesion: several types, types named in the paper, dosed 112 weeks, study length 112 weeks
  TD50: 528 mg/kg/day
rat, strain Sprague-Dawley, males, in feed, site: kidney, lesion: squamous-cell carcinoma, dosed 112 weeks, study length 112 weeks
  TD50: 1390 mg/kg/day
rat, strain Sprague-Dawley, males, in feed, site: kidney, lesion: urothelial carcinoma, dosed 112 weeks, study length 112 weeks
  TD50: 690 mg/kg/day
rat, strain Sprague-Dawley, males, in feed, site: urinary bladder, lesion: several types, types named in the paper, dosed 112 weeks, study length 112 weeks
  TD50: 130 mg/kg/day
rat, strain Sprague-Dawley, males, in feed, site: urinary bladder, lesion: squamous-cell carcinoma, dosed 112 weeks, study length 112 weeks
  TD50: 690 mg/kg/day
rat, strain Sprague-Dawley, males, in feed, site: urinary bladder, lesion: squamous-cell papilloma, dosed 112 weeks, study length 112 weeks
  TD50: 1390 mg/kg/day
rat, strain Sprague-Dawley, males, in feed, site: urinary bladder, lesion: urothelial carcinoma, dosed 112 weeks, study length 112 weeks
  TD50: 340 mg/kg/day
rat, strain Sprague-Dawley, males, in feed, site: urinary bladder, lesion: urothelial papilloma, dosed 112 weeks, study length 112 weeks
  TD50: 457 mg/kg/day
rat, strain Sprague-Dawley, males, in feed, site: urinary tract, lesion: several types, types named in the paper, dosed 112 weeks, study length 112 weeks
  TD50: 85.5 mg/kg/day

## CC(=O)N(C(C)=O)c1cccc2c1Cc1ccccc1-2
rat, strain Buffalo, females, in feed, site: ear duct, lesion: squamous-cell carcinoma, dosed 53 weeks, study length 93 weeks
  TD50: 61.2 mg/kg/day
rat, strain Buffalo, females, in feed, site: liver, lesion: hemangioma, dosed 53 weeks, study length 93 weeks
  TD50: 61.2 mg/kg/day
rat, strain Buffalo, females, in feed, site: mammary gland, lesion: adenocarcinoma, dosed 53 weeks, study length 93 weeks
  TD50: 19 mg/kg/day
rat, strain Buffalo, females, in feed, site: pituitary gland, lesion: adenoma, dosed 53 weeks, study length 93 weeks
  TD50: 8.63 mg/kg/day

## Oc1ccc(O)cc1
mouse, strain B6C3F1, females, by gavage, site: liver, lesion: hepatocellular adenoma + hepatocellular carcinoma + neoplastic nodule, dosed 103 weeks, study length 105 weeks
  TD50: 122 mg/kg/day
mouse, strain B6C3F1, females, by gavage, site: liver, lesion: hepatocellular adenoma + hepatocellular carcinoma, dosed 103 weeks, study length 105 weeks
  TD50: 122 mg/kg/day
mouse, strain B6C3F1, females, by gavage, site: liver, lesion: hepatocellular adenoma, dosed 103 weeks, study length 105 weeks
  TD50: 65 mg/kg/day
mouse, strain B6C3F1, females, by gavage, site: lung, lesion: alveolar/bronchiolar adenoma + alveolar/bronchiolar carcinoma, dosed 103 weeks, study length 105 weeks
  TD50: 19200 mg/kg/day
mouse, strain B6C3F1, females, in feed, site: liver, lesion: hepatocellular adenoma, dosed 96 weeks, study length 96 weeks
  TD50: 17900 mg/kg/day
mouse, strain B6C3F1, males, by gavage, site: any site (literature study), lesion: several types, types named in the paper, dosed 103 weeks, study length 104 weeks
  TD50: 497 mg/kg/day (inactive)
mouse, strain B6C3F1, males, by gavage, site: liver, lesion: hepatocellular adenoma + hepatocellular carcinoma + neoplastic nodule, dosed 103 weeks, study length 104 weeks
  TD50: 383 mg/kg/day
mouse, strain B6C3F1, males, in feed, site: kidney, lesion: adenoma, dosed 96 weeks, study length 96 weeks
  TD50: 5320 mg/kg/day
mouse, strain B6C3F1, males, in feed, site: liver, lesion: hepatocellular adenoma, dosed 96 weeks, study length 96 weeks
  TD50: 1450 mg/kg/day
rat, strain F344/DuCrj, females, in feed, site: liver, lesion: hepatocellular carcinoma, dosed 104 weeks, study length 104 weeks
  TD50: 8080 mg/kg/day
rat, strain F344/DuCrj, males, in feed, site: kidney, lesion: adenoma, dosed 104 weeks, study length 104 weeks
  TD50: 349 mg/kg/day
rat, strain Fischer 344, females, by gavage, site: all sites, lesion: mononuclear-cell leukemia, dosed 103 weeks, study length 104 weeks
  TD50: 55.8 mg/kg/day
rat, strain Fischer 344, females, by gavage, site: any site (literature study), lesion: several types, types named in the paper, dosed 103 weeks, study length 104 weeks
  TD50: 51.6 mg/kg/day
rat, strain Fischer 344, males, by gavage, site: adrenal medulla, lesion: pheochromocytoma benign, bilateral + pheochromocytoma, benign, dosed 103 weeks, study length 104 weeks
  TD50: 48.2 mg/kg/day
rat, strain Fischer 344, males, by gavage, site: adrenal medulla, lesion: pheochromocytoma benign, bilateral + pheochromocytoma, malignant + pheochromocytoma, benign, dosed 103 weeks, study length 104 weeks
  TD50: 40.4 mg/kg/day
rat, strain Fischer 344, males, by gavage, site: any site (literature study), lesion: several types, types named in the paper, dosed 103 weeks, study length 104 weeks
  TD50: 41.8 mg/kg/day
rat, strain Fischer 344, males, by gavage, site: kidney, lesion: tubule adenoma, dosed 103 weeks, study length 104 weeks
  TD50: 64.7 mg/kg/day
rat, strain Fischer 344, males, by gavage, site: liver, lesion: hepatocellular adenoma + hepatocellular carcinoma + neoplastic nodule, dosed 103 weeks, study length 104 weeks
  TD50: 5710 mg/kg/day
